Values joined by “and” are separate entries in the source; they are usually repeats but may differ in a detail not shown here. Equal entries are not always repeated.
Tested on: thromboxane A2 challenged PAH-minipig
Assay: Haemodynamics in the anesthetized thromboxane challenged minipig, intratracheal dry powder (PAP, BP)
Format: in vivo, Göttingen Minipigs
Details: 375 μg/kg i.t.
Protocol: Healthy Göttingen Minipigs® Ellegaard (Ellegaard, Denmark) of both sexes and having a weight of 2-6 kg were used. The animals were sedated by i.m. administration of about 25 mg/kg ketamine and about 10 mg/kg azaperone. Anaesthesia was initiated by i.v. administration of about 2 mg/kg ketamine and about 0.3 mg/kg midazolam. Maintenance of anaesthesia was by i.v. administration of about 7.5-30 mg/kg/h ketamine and about 1-4 mg/kg/h midazolam (rate of infusion 1-4 ml/kg/h) and about 150 μg/kg/h pancuronium bromide (for example Pancuronium-Actavis). After intubation, the animals were ventilated by the ventilator at a constant respiratory volume (10-12 ml/kg, 35 breaths/min; Avea®, Viasys Healthcare, USA, or Engström Carestation, GE Healthcare, Freiburg, Germany) such that an end-tidal CO2 concentration of about 5% was achieved. Ventilation was performed with room air, enriched with about 40% oxygen (normoxia). For the measurement of the haemodynamic parameters such as pulmonary arterial pressure (PAP), blood pressure (BP) and heart rate (HR), catheters were inserted into the carotid artery to measure the blood pressure, and a Swan-Ganz® catheter was introduced in a flow-directed manner via the jugular vein into the pulmonary artery. The haemodynamic signals were recorded and evaluated by means of pressure transducers (Combitransducer, B. Braun, Melsungen, Germany)/amplifiers and Ponemah® as data acquisition software.
As reference pure Lactose vehicle was applied in the beginning of each experiment.

O.O=C(O)c1ccc(CCN(CCc2ccccc2OCc2ccc(-c3ccc(C(F)(F)F)cc3)cc2Cl)[C@H]2CCCc3nc(C(=O)O)ccc32)cc1.O=C(O)c1ccc(CCN(CCc2ccccc2OCc2ccc(-c3ccc(C(F)(F)F)cc3)cc2Cl)[C@H]2CCCc3nc(C(=O)O)ccc32)cc1 [example 6a, (5S)—{[2-(4-Carboxyphenyl)ethyl][2-(2-{[3-chloro-4′-(trifluoromethyl)biphenyl-4-yl]methoxy}phenyl)-ethyl]amino}-5,6,7,8-tetrahydroquinoline-2-carboxylic acid semihydrate]
PAP, % changes vs. prevalues (time 160 min): 59.9% and 77.1% and 73.1%
BP (mean) (time 170 min): 95 mmHg and 79 mmHg
BP, % changes vs. prevalues (time 170 min): 95.6% and 99.7% and 107.4%
PAP(mean) (time 170 min): 24.0 mmHg and 32.4 mmHg and 29.9 mmHg
PAP, % changes vs. prevalues (time 170 min): 58.6% and 76.7% and 72.3%
BP (mean) (time 180 min): 94 mmHg and 79 mmHg
BP, % changes vs. prevalues (time 180 min): 94.6% and 99.7% and 106.3%
PAP(mean) (time 180 min): 23.7 mmHg and 31.9 mmHg and 29.7 mmHg
PAP, % changes vs. prevalues (time 180 min): 58.0% and 75.4% and 71.8%
BP (mean) (time 190 min): 94 mmHg and 85 mmHg and 93 mmHg
BP, % changes vs. prevalues (time 190 min): 94.6% and 108.5% and 105.2%
PAP(mean) (time 190 min): 24.4 mmHg and 32.4 mmHg and 29.2 mmHg
PAP, % changes vs. prevalues (time 190 min): 59.5% and 78.4% and 70.7%
BP (mean) (time 200 min): 92 mmHg and 85 mmHg
BP, % changes vs. prevalues (time 200 min): 92.6% and 107.3% and 104.0%
PAP(mean) (time 200 min): 24.8 mmHg and 32.4 mmHg and 29.4 mmHg
PAP, % changes vs. prevalues (time 200 min): 60.5% and 76.8% and 71.1%
BP (mean) (time 210 min): 90 mmHg and 81 mmHg and 91 mmHg
BP, % changes vs. prevalues (time 210 min): 90.6% and 102.2% and 102.9%
PAP(mean) (time 210 min): 24.8 mmHg and 31.9 mmHg and 29.2 mmHg
PAP, % changes vs. prevalues (time 210 min): 60.6% and 75.5% and 70.8%
BP (mean) (time 220 min): 89 mmHg and 79 mmHg
BP, % changes vs. prevalues (time 220 min): 89.6% and 99.7% and 100.6%
PAP(mean) (time 220 min): 24.7 mmHg and 31.7 mmHg and 29.1 mmHg
PAP, % changes vs. prevalues (time 220 min): 60.3% and 75.1% and 70.3%
BP (mean) (time 230 min): 87 mmHg and 78 mmHg and 89 mmHg
BP, % changes vs. prevalues (time 230 min): 87.6% and 98.4% and 100.6%
PAP(mean) (time 230 min): 24.0 mmHg and 31.3 mmHg and 28.6 mmHg
PAP, % changes vs. prevalues (time 230 min): 58.7% and 74.1% and 69.1%
BP (mean) (time 240 min): 87 mmHg and 77 mmHg
BP, % changes vs. prevalues (time 240 min): 87.6% and 97.2% and 98.4%
PAP(mean) (time 240 min): 24.1 mmHg and 31.3 mmHg and 28.1 mmHg
PAP, % changes vs. prevalues (time 240 min): 58.9% and 74.2% and 68.0%
BP (mean) (time 250 min): 85 mmHg and 76 mmHg
BP, % changes vs. prevalues (time 250 min): 85.5% and 95.9% and 96.1%
PAP(mean) (time 250 min): 24.2 mmHg and 30.7 mmHg and 28.1 mmHg
PAP, % changes vs. prevalues (time 250 min): 59.0% and 72.7% and 67.9%
BP (mean) (time 260 min): 85 mmHg and 76 mmHg and 84 mmHg
BP, % changes vs. prevalues (time 260 min): 85.5% and 95.9% and 95.0%
PAP(mean) (time 260 min): 24.1 mmHg and 30.6 mmHg and 28.1 mmHg
PAP, % changes vs. prevalues (time 260 min): 58.8% and 72.5% and 68.0%
BP (mean) (time 270 min): 85 mmHg and 76 mmHg and 87 mmHg
BP, % changes vs. prevalues (time 270 min): 85.5% and 95.9% and 98.4%
PAP(mean) (time 270 min): 24.4 mmHg and 30.6 mmHg and 27.8 mmHg
PAP, % changes vs. prevalues (time 270 min): 59.6% and 72.4% and 67.3%
BP (mean) (time 280 min): 85 mmHg and 75 mmHg and 84 mmHg
BP, % changes vs. prevalues (time 280 min): 85.5% and 94.6% and 95.0%
PAP(mean) (time 280 min): 24.3 mmHg and 30.7 mmHg and 28.0 mmHg
PAP, % changes vs. prevalues (time 280 min): 59.3% and 72.6% and 67.8%
BP (mean) (time 290 min): 84 mmHg and 75 mmHg and 83 mmHg
BP, % changes vs. prevalues (time 290 min): 84.5% and 94.6% and 93.9%
PAP(mean) (time 290 min): 24.1 mmHg and 30.7 mmHg and 27.6 mmHg
PAP, % changes vs. prevalues (time 290 min): 58.8% and 72.6% and 66.7%
BP (mean) (time 300 min): 83 mmHg and 77 mmHg and 82 mmHg
BP, % changes vs. prevalues (time 300 min): 83.5% and 97.2% and 92.7%
PAP(mean) (time 300 min): 23.7 mmHg and 30.5 mmHg and 27.7 mmHg
PAP, % changes vs. prevalues (time 300 min): 57.9% and 72.2% and 67.1%
